The values below are quoted from earlier work in patent US6683112B2, “Gabapentin prodrugs and formulations” (Andrx Corporation, priority 2000, dated 2004).

For data set [1] the following is noted: in water and in both basic and acidic conditions.

With `NCC1(CC(=O)O)CCCCC1` [Gabapentin, 1-(aminomethyl)cyclohexaneacetic acid], under “in humans”, the metabolism entry is given as “not extensively metabolized” and the route of elimination result is recorded as “eliminated via renal excretion essentially unchanged”. For the same compound, under “typical dosage range 300-600 mgs T.I.D.”, the oral bioavailability result was “approximately sixty”. The elimination half life entry (unaltered by dose or following multiple dosing) is on record as “five to seven”. Further, the solubility entry in data set [1] is “highly soluble”.
